Data published in patent US20250352458A1, “IMPROVEMENTS IN OR RELATING TO EXTRACTS” (Givaudan SA, priority 2020, published 2025).
Values joined by “and” are separate entries in the source; they are usually repeats but may differ in a detail not shown here. Equal entries are not always repeated.

System: S. aureus (ATCC 33592)
Experiment: MIC evaluation, optical density and percentage of inhibition
Format: cell-based, Staphylococcus aureus
Source text: The minimum inhibitory concentration of the following active ingredients has been assessed: • Mangifera indica extract (in propanediol/water 75/25); • Vehicule (propanediol/water 75/25, expressed as Activolo3-75%); • “Pool Mangiferin” which is the pure molecule mangiferin at the same concentration in the Mangifera indica extract in propanediol/water 75/25. • “Pool Mangifera” with is the mix of the 4 molecules (mangiferin, maclurin-C-glucoside, irifluophenone-C-glucoside, gallotanin) at the same concentration in the Mangifera indica extract in propane-diol/water 75/25. S. aureus: The day before the experiment S. aureus (ATCC 33592) was plated and grown overnight at 37° C. Colonies were resuspended in 5 mL of TSB (Tryptic Soy Broth) to obtain a 0.5 McFarland D O (≈1.10^8 CFU/ml) (launch of culture at D-1). […] Concentrations are expressed in % (m/v). […] The diluted bacterial suspension was added to columns 2 to 12. RCB medium was added to column 1 as negative control. Optical density was determined, which correlates to the bacterial growth.

[1] = 0.39 10^−2 % (m/v), plate col. 12
[2] = 0.78 10^−2 % (m/v), plate col. 11
[3] = 1.56 10^−2 % (m/v), plate col. 10
[4] = 3.1310^−2 % (m/v), plate col. 9
[5] = 6.25 10^−2 % (m/v), plate col. 8
[6] = 12.5 10^−2 % (m/v), plate col. 7
[7] = 25.0 10^−2 % (m/v), plate col. 6

Compound: O=c1c2cc(O)c(O)cc2oc2cc(O)c([C@@H]3O[C@H](CO)[C@@H](O)[C@H](O)[C@H]3O)c(O)c12 [pool mangiferin]
- Optical density, S. aureus [1]: 0.387 and 0.392
- Percentage of inhibition, S. aureus [1]: 3.0% and 1.6%
- Optical density, S. aureus (0.5% (m/v), plate col. 5): 0.363 and 0.359
- Percentage of inhibition, S. aureus (0.5% (m/v), plate col. 5): 9.8% and 11.0%
- Optical density, S. aureus [2]: 0.384 and 0.366
- Percentage of inhibition, S. aureus [2]: 3.9% and 9.0%
- Optical density, S. aureus (1% (m/v), plate col. 4): 0.346 and 0.348
- Percentage of inhibition, S. aureus (1% (m/v), plate col. 4): 14.7% and 14.1%
- Optical density, S. aureus [3]: 0.365 and 0.369
- Percentage of inhibition, S. aureus [3]: 9.3% and 8.1%
- antibacterial effect on S. aureus (in words) (2%): slight antibacterial effect
- Optical density, S. aureus (2% (m/v), plate col. 3): 0.320 and 0.327
- Percentage of inhibition, S. aureus (2% (m/v), plate col. 3): 22.1% and 20.1%
- Optical density, S. aureus [4]: 0.377 and 0.378
- Percentage of inhibition, S. aureus [4]: 5.9% and 5.6%
- Optical density, S. aureus [5]: 0.370 and 0.364
- Percentage of inhibition, S. aureus [5]: 7.9% and 9.6%
- Optical density, S. aureus [6]: 0.368 and 0.367
- Percentage of inhibition, S. aureus [6]: 8.4% and 8.7%
- Optical density, S. aureus [7]: 0.370 and 0.368
- Percentage of inhibition, S. aureus [7]: 7.9% and 8.4%
